From ChEMBL document CHEMBL1128669, “The furoxan system as a useful tool for balancing "hybrids" with mixed alpha 1-antagonist and NO-like vasodilator activities” (J Med Chem, 1995)

How the values were obtained:
Rattus norvegicus [1] = species on record: Rattus norvegicus; experiment: Inhibition of vasodilating activity was assessed on the epididymal portion of rat vas deferens in the absence of HbO2 in vitro; type: functional, organism-based
[2] = target: T1, Alpha-1D adrenergic receptor (Rattus norvegicus, UniProt P23944); experiment: Partial affinity towards Alpha-1 adrenergic receptor was assessed on rat aortic strips
T1 sequence (P23944 whole entry): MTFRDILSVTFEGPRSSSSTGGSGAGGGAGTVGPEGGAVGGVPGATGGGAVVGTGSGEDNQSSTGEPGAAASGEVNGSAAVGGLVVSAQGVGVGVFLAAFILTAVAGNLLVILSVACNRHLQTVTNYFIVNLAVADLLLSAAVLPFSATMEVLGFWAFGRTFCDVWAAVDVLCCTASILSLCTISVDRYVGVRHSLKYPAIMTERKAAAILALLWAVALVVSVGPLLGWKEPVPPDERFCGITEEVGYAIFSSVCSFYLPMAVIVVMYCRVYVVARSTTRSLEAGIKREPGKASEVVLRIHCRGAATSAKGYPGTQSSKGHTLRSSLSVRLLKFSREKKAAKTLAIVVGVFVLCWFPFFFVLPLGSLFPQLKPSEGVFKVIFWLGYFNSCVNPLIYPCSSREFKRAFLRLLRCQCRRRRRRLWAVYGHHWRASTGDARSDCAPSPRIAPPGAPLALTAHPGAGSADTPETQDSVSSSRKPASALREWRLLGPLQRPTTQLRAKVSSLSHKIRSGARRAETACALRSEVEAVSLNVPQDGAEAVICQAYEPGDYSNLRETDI

Rattus norvegicus [3] = species on record: Rattus norvegicus; experiment: Inhibition of vasodilating activity was assessed on the epididymal portion of rat vas deferens in the presence of HbO2 in vitro; type: functional
Rattus norvegicus [4] = species on record: Rattus norvegicus; experiment: Inhibition of vasodilating activity was assessed on the rat aortic strips in the absence of HbO2 in vitro
Rattus norvegicus [5] = species on record: Rattus norvegicus; experiment: Inhibition of vasodilating activity was assessed on the rat aortic strips in the presence of HbO2 in vitro

Work on `COc1cc2nc(N3CCC(S(=O)(=O)c4no[n+]([O-])c4-c4ccccc4)CC3)nc(N)c2cc1OC` yielded an IC50 (Rattus norvegicus [1]) of 52 nM, a pA2 [2] of 8.96 and an IC50 (Rattus norvegicus [3]) of 610 nM.

With `COc1cc2nc(N3CCN(C(=O)c4no[n+]([O-])c4C(N)=O)CC3)nc(N)c2cc1OC` the pA2 [2] was 8.25 and the IC50 (Rattus norvegicus [4]) was 2500 nM.

With `COc1cc2nc(N3CCC(S(=O)(=O)c4c(-c5ccccc5)no[n+]4[O-])CC3)nc(N)c2cc1OC` the IC50 (Rattus norvegicus [1]) was 95 nM, the pA2 [2] was 8.49 and the IC50 (Rattus norvegicus [3]) was 700 nM.

`COc1cc2nc(N3CCC(S(=O)(=O)c4nonc4-c4ccccc4)CC3)nc(N)c2cc1OC` showed a pA2 [2] of 9.17.

`COc1cc2nc(N3CCN(C(=O)c4no[n+]([O-])c4C#N)CC3)nc(N)c2cc1OC` showed a pA2 [2] of 8.04, an IC50 (Rattus norvegicus [4]) of 9.7 nM and an IC50 (Rattus norvegicus [5]) of 81 nM.

Compound `COC(=O)c1c(C(=O)N2CCN(c3nc(N)c4cc(OC)c(OC)cc4n3)CC2)no[n+]1[O-]` has a pA2 [2] of 8.55 and an IC50 (Rattus norvegicus [4]) of 630 nM.
